Results on one molecule are retold here after patent US20220380378A1 (ESSA Pharma, Inc., priority 2021, published 2022).

The term IC50 denotes the concentration needed to halve the response being measured.

The test addresses T1, androgen receptor (AR) (Homo sapiens, UniProt P10275, T878A).
T1 sequence (P10275 1-920 T878A): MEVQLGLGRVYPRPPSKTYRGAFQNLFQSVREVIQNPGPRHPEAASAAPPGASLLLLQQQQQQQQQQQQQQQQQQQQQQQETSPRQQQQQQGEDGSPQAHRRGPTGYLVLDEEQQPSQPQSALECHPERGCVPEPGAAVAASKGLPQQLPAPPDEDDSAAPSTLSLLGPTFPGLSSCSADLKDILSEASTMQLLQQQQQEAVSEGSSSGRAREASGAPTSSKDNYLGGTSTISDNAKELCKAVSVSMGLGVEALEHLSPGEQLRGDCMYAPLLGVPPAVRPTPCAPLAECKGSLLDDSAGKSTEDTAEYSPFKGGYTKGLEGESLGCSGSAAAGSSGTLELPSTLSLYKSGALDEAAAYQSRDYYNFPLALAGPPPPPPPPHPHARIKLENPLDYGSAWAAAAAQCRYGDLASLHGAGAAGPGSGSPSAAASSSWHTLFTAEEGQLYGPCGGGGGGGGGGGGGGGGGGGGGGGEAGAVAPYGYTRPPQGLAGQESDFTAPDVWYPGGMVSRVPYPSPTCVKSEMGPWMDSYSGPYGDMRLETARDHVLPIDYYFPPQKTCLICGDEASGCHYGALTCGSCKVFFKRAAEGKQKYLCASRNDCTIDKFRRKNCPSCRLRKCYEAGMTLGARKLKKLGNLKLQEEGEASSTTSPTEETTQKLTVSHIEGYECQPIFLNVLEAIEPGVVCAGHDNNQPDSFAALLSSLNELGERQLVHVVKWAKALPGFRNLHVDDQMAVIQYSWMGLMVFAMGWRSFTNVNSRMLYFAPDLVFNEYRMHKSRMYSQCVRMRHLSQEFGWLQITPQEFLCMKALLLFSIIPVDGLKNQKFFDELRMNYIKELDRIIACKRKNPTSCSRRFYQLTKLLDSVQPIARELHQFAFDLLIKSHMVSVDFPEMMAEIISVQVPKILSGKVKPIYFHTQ
The test is described as follows: Androgen-induced PSA (6.1 kb)-luciferase reporter assay in LNCaP cells (R1881 1 nM). Type of test: cell-based. More on the design: LNCaP cells were transiently transfected with the PSA (6.1 kb)-luciferase reporter for 24 h; endogenous in cells; host or cells: LNCaP. To be noted: 24 h, read-out: PSA-Luc IC50 Range. On the procedure: The PSA (6.1 kb)-luciferase reporter contains functional AREs (androgen response elements) to which AR binds in response to androgen to induce luciferase activity. LNCaP cells were transiently transfected with the PSA (6.1 kb)-luciferase reporter for 24 h, and then pretreated with vehicle (DMSO) or indicated concentration of representative compounds for one hour prior to the addition of synthetic androgen, R1881 (1 nM). After 24 h of incubation with R1881, the cells were harvested, and relative luciferase activities were determined (FIG. 1). To determine the IC50, treatments were normalized to vehicle control activity induced by R1881 (Table 2).
Luciferase Assay: Cells were lysed using Passive Lysis Buffer (Promega) and then collected into V-bottom 96-well tissue culture plates. Lysates were centrifuged at 4° C. for 5 minutes at 3000 rpm. To measure luminescence of LNCaP cell lysates the Firefly Luciferase Assay System (Promega) was employed, according to manufacturer's protocol. Relative luminescence units (RLU) in cell lysates were detected for 10 seconds using Promega GloMax-Multi Detection Luminometer (Promega). Values were normalized to protein content. GraphPad Prism graphing software was used to calculate IC50 values.
Statistical analyses were performed using GraphPad Prism (Version 6.01 for Windows; La Jolla, Calif., USA). […]
On the technique in general: A reporter such as luciferase makes a cellular process visible.

On to `CS(=O)(=O)Nc1nccc(COc2ccc3c(ncn3-c3cc(Cl)c(OCCCl)c(C#N)c3)c2Cl)n1` [Compound A46], for which the concentration for half-maximal inhibition (IC50) is less than 500 nM.
